{"source": "patent US5958770A", "about": "“Glycoalkaloids” (priority 1990, dated 1999)", "key": {"[1]": {"tested_on": "lymphoblastoid cells (EBV transformed lymphocytes)", "assay": "cells", "conditions": "for TR50 (thymidine ratio relative to ovarian cancer cells): LCL / OvCa", "experimental": "(§1) The inhibition of cell replication by steroid alkaloids is determined by the inhibition of the incorporation of ^3 H thymidine into DNA. Using this technique, it should be possible to monitor any preferential inhibition of uptake of ^3 H thymidine by cancer cells.\n(§2) Cells were maintained as monolayers in RPM1-1640 tissue culture media (Grant Island Biological Co) buffered with N-2-hydroxy-ethylpiperazine-N-2-ethanesulphonic acid pH 7.5 and supplemented with 10% heat inactivated fetal calf serum (FCS): (i) a human ovarian cancer cell line (C180-135), (ii) HeLa cells, (iii) human fibroblasts, and (iv) as a cell suspension of lymphoblastoid cells (EBV transformed lymphocytes). Monolayers were trypsinized to form a cell suspension. […] Cell concentration was adjusted to 2×10^5 cells/ml, and 2×10^4 cells were added in replicates of 10 to the wells (1×10^5 /ml well) of HA microtitre plates (Millipore Corp., USA). The cells were preincubated at 37.5° C. for 7 hours prior to the addition of 50 μl of the cytotoxic drug followed by the addition of 50 μl 5 uCi/ml of ^3 H thymidine, in the same tissue culture media 21 hours later. Incubation was continued for a total of 24 hours, which includes the pre-incubation time.\n(§3) Appropriate DMSO cytotoxicity studies were also conducted. Solasodine glycosides were supplied as a mixture (BEC), and as separate components, solamargine, solasonine, a mixture of di- and mono-glycosides and the aglycone solasodine. All cytotoxic drugs were further diluted with HIFCS/TCM before testing. 5×10^4 ovarian cancer cells (200 μl/chamber of a chamber of microscope slide (Lab Tek Miles Scientific) were used. Controls received 50 μl HIFCS/TCM and experimental chambers 50 μl of solasodine glycosides (BEC) 1.5-3.8 μM/L after 7 hrs preincubation, and incubated for a further 3 hrs. Similarly, the cells were treated with the aglycone solasodine 19.4-96.8 μM/L. The cells were fixed and examined by the Papanicolaou method."}, "[2]": {"tested_on": "human fibroblasts", "assay": "cells", "conditions": "for TR50 (thymidine ratio relative to ovarian cancer cells): FB / OvCa", "experimental": "as §1, §2, §3"}, "[3]": {"tested_on": "HeLa cells", "assay": "cells", "experimental": "as §1, §2, §3"}, "[4]": {"assay": "in vitro", "conditions": "human, unstimulated lymphocytes", "procedure": "(§5) This was cultured for 48 hours and pulsed with tritiated thymidine for a further 24 hours. In the inhibition studies, the cell concentration was 8×10^5 /ml.\n(§6) All cells were harvested by vacuum filtration by washing in 250 μl of each of phosphate buffered saline, 5% trichloroacetic acid, 1.0M NaCl and 95% ethanol and subjected to β-scintillatian counting. Similarly, peripheral human blood lymphocytes were isolated and cultured 2×10^5 lymphocytes in CO2 1640TCM 10% HIFCS. Lymphocytes were stimulated with 20 μg/ml PHA, Con A or PWM, and cultured for 48 hrs followed by a 24 hr pulse. […] Cell concentrations were 8×10^4 /well total volume 250 μl. The dpm of the experimental replicates were expressed as a percentage of the mean value of the controls, and the mean value of the experimental replicates calculated."}, "[5]": {"tested_on": "PWM stimulated lymphocytes", "assay": "Inhibition of tritiated thymidine uptake, PWM stimulated lymphocytes", "conditions": "PWM stimulated lymphocytes", "procedure": "as §5, §6"}, "[6]": {"tested_on": "fibroblasts", "assay": "Solamargine cytotoxicity in presence and absence of carbohydrates, fibroblasts", "format": "cell-based, human", "conditions": "Homo sapiens, Fibroblast, Fb, solamargine 3.1 μM/L, read-out: Percentage Survival", "experimental": "(§4) A mixture of solasodine glycosides (BEC), of which the active compound is solamargine and from which the aglycone solasodine is derived was prepared for use in cytotoxicity assays as determined by the uptake of tritiated thymidine. Inhibition studies were carried out with lactose, lactosyl-albumin, galactose or rhamnose (Sigma Chemical Co., USA). All experimental replicates were related to their own controls. Total volume of replicates was 250 μl (carbohydrates added in 50 μl tissue culture media+10% fetal calf serum), and the cell concentrations were 8×10^4 /ml."}, "[7]": {"tested_on": "unstimulated lymphocytes", "assay": "Inhibition of tritiated thymidine uptake, unstimulated lymphocytes", "conditions": "unstimulated lymphocytes", "procedure": "as §5, §6"}, "[8]": {"assay": "in vitro", "conditions": "human, pwm stimulated lymphocytes", "procedure": "as §5, §6"}, "[9]": {"tested_on": "human spermatozoa", "assay": "Immobilization of spermatozoa", "format": "cell-based", "conditions": "for effect on spermatozoa (words): solamargine/eosin, FIG. 5", "experimental": "In order to observe any immobilization of spermatozoa, sperm (10×10^6 /ml) (50 μl) were placed on a microscope slide separated from 50 μl of solamargine (1 mg/ml) by 5 μl of eosin. A cover slip was then placed over the slide. […] This is a standard method known in the art. It was noted that sperm was not present on the side of the slide where the drop of solasodine glycosides was placed."}, "[10]": {"tested_on": "Con A stimulated lymphocytes", "assay": "Inhibition of tritiated thymidine uptake, Con A stimulated lymphocytes", "conditions": "Con A stimulated lymphocytes"}, "[11]": {"tested_on": "HeLa cells", "assay": "Solamargine cytotoxicity in presence and absence of carbohydrates, HeLa cells", "format": "cell-based, human", "conditions": "Homo sapiens, HeLa, solamargine 2.4 μM/L, read-out: Percentage Survival", "experimental": "as §4"}, "[12]": {"assay": "in vitro", "conditions": "human, pha stimulated lymphocytes"}, "[13]": {"tested_on": "lymphoblastoid cells", "assay": "Solamargine cytotoxicity in presence and absence of carbohydrates, lymphoblastoid cells", "format": "cell-based", "conditions": "Homo sapiens, Lymphoblastoid cell, LCL, solamargine 3.1 μM/L, read-out: Percentage Survival", "experimental": "as §4"}, "[14]": {"tested_on": "ovarian cancer cells, HeLa cells, lymphoblastoid cells, fibroblasts", "assay": "Cytotoxicity / inhibition of tritiated thymidine uptake, cell types taken together", "experimental": "as §1, §2, §3"}, "[15]": {"tested_on": "ovarian cancer cells", "assay": "Inhibition of tritiated thymidine uptake, ovarian cancer cells", "experimental": "as §1, §2, §3"}, "[16]": {"conditions": "1.1 μM/L galactose, *** p < 0.001"}, "[17]": {"conditions": "1.1 μM/L lactose, *** p < 0.001"}}, "note": "“Also recorded” adds a separate entry of the source. Where two headings read alike, the source gives them in different places."}
{"compound": "C[C@@H]1CC[C@@]2(NC1)O[C@H]1C[C@H]3[C@@H]4CC=C5C[C@@H](O[C@@H]6O[C@H](CO)[C@@H](O[C@@H]7O[C@@H](C)[C@H](O)[C@@H](O)[C@H]7O)[C@H](O)[C@H]6O[C@@H]6O[C@@H](C)[C@H](O)[C@@H](O)[C@H]6O)CC[C@]5(C)[C@H]4CC[C@]3(C)[C@H]1[C@@H]2C", "note": "[Solamargine, solamargine]", "values": [{"measurement": "viability at 11.5 µM", "setting": "[1]; Homo sapiens, Lymphoblastoid cell, read-out: Percentage Cell Survival", "value": "35 ± 4.2", "unit": "%"}, {"measurement": "TR50 (thymidine ratio relative to ovarian cancer cells)", "setting": "[1]; listed as Solam", "value": 2.5}, {"measurement": "TR50 (thymidine ratio relative to ovarian cancer cells)", "setting": "[1]; listed as solamargine", "value": "greater than 2"}, {"measurement": "IC50", "setting": "[1]; human gammaherpesvirus 4, LCL, read-out: LD50 (dose to inhibit 50% tritiated thymidine uptake)", "value": 3.95, "unit": "µM"}, {"measurement": "TR50 (thymidine ratio relative to ovarian cancer cells)", "setting": "[2]; listed as Solam", "value": 2.3}, {"measurement": "TR50 (thymidine ratio relative to ovarian cancer cells)", "setting": "[2]; listed as solamargine", "value": "greater than 2"}, {"measurement": "IC50", "setting": "[2]; Homo sapiens, Fibroblast, read-out: LD50 (dose to inhibit 50% tritiated thymidine uptake)", "value": 3.65, "unit": "µM"}, {"measurement": "viability at 11.5 µM", "setting": "[2]; Homo sapiens, Fibroblast, read-out: Percentage Cell Survival", "value": "23 ± 1.7", "unit": "%"}, {"measurement": "TR50 (thymidine ratio relative to ovarian cancer cells)", "setting": "[3]; HeLa / OvCa", "value": 1.6}, {"measurement": "IC50", "setting": "[3]; Homo sapiens, HeLa, read-out: LD50 (dose to inhibit 50% tritiated thymidine uptake)", "value": 2.5, "unit": "µM"}, {"measurement": "viability at 11.5 µM", "setting": "[3]; Homo sapiens, HeLa, read-out: Percentage Cell Survival", "value": "2.6 ± 0.5", "unit": "%"}, {"measurement": "viability at 11.5 µM", "setting": "[4]", "value": "76 ± 9.6", "unit": "%"}, {"measurement": "cytotoxicity (words)", "setting": "[5]", "value": "absence of cytotoxicity"}, {"measurement": "viability at 3.1 µM", "setting": "[6]; [16]", "value": 101, "unit": "%"}, {"measurement": "viability at 3.1 µM", "setting": "[6]; [17]", "value": 100, "unit": "%"}, {"measurement": "viability at 3.1 µM", "setting": "[6]; 1.1 μM/L rhamnose, *** p < 0.001", "value": 87, "unit": "%"}, {"measurement": "viability at 3.1 µM", "setting": "[6]; no carbohydrate", "value": "58 ± 9.6", "unit": "%"}, {"measurement": "cytotoxicity (words)", "setting": "[7]", "value": "limited effect; also recorded: limited cytotoxicity"}, {"measurement": "viability at 11.5 µM", "setting": "[8]", "value": "93 ± 9.4", "unit": "%"}, {"measurement": "time to immobilization of sperm", "setting": "[9]; solamargine 1 mg/ml", "value": "≤ 15", "unit": "s"}, {"measurement": "effect on spermatozoa (words)", "setting": "[9]", "value": "inhibit human spermatozoal motility"}, {"measurement": "effect on spermatozoa (words)", "setting": "[9]; listed as solamargine", "value": "dead intact spermatozoa"}, {"measurement": "cytotoxicity (words)", "setting": "[10]", "value": "limited effect; also recorded: limited cytotoxicity"}, {"measurement": "viability at 2.4 µM", "setting": "[11]; 1.1 μM/L galactose", "value": "24 ± 2.2", "unit": "%"}, {"measurement": "viability at 2.4 µM", "setting": "[11]; 1.1 μM/L lactose", "value": "24 ± 2.9", "unit": "%"}, {"measurement": "viability at 2.4 µM", "setting": "[11]; 1.1 μM/L rhamnose", "value": "26 ± 2.1", "unit": "%"}, {"measurement": "viability at 2.4 µM", "setting": "[11]; no carbohydrate (first line)", "value": "25 ± 2.6", "unit": "%"}, {"measurement": "viability at 2.4 µM", "setting": "[11]; no carbohydrate (second line, with rhamnose)", "value": "24 ± 4", "unit": "%"}, {"measurement": "viability at 11.5 µM", "setting": "[12]", "value": "93 ± 4.4", "unit": "%"}, {"measurement": "viability at 3.1 µM", "setting": "[13]; [16]", "value": 42, "unit": "%"}, {"measurement": "viability at 3.1 µM", "setting": "[13]; [17]", "value": 47, "unit": "%"}, {"measurement": "viability at 3.1 µM", "setting": "[13]; 1.1 μM/L rhamnose", "value": "36 ± 4.5", "unit": "%"}, {"measurement": "viability at 3.1 µM", "setting": "[13]; no carbohydrate", "value": "34 ± 3", "unit": "%"}, {"measurement": "preferential cytotoxicity for cancer cells", "setting": "[14]; cancer cells relative to other cell types", "value": "preferentially inhibits the uptake of tritiated thymidine by cancer cells"}, {"measurement": "LD50 for ovarian cancer cell line and HeLa cells less than that for lymphoblastoid cells and fibroblasts", "setting": "[14]; fold lower", "value": "1.5-3.3 times"}, {"measurement": "IC50", "setting": "[15]; Homo sapiens, read-out: LD50 (dose to inhibit 50% tritiated thymidine uptake)", "value": 1.55, "unit": "µM"}, {"measurement": "viability at 11.5 µM", "setting": "[15]; Homo sapiens, read-out: Percentage Cell Survival", "value": "7 ± 0.8", "unit": "%"}, {"measurement": "LD50 of solamargine less than that of vinblastine, chlorambucil or cis-platinum", "setting": "[15]; ovarian cancer cells, fold lower", "value": "6-40 times"}]}
